Drawing on patent publication US20260167622A1, “PAN-KRAS DEGRADING AGENT, AND PREPARATION METHOD THEREFOR AND USE THEREOF” (LEADINGTAC PHARMACEUTICAL (SHAOXING) CO., LTD., priority 2022, published 2026), this text covers DC50, Dmax and IC50 for four compounds.

Common to all, as to format: cell-based
The target of experiment [1] is T1, KRAS G12V protein in SW900 cells (Homo sapiens, UniProt P01116, G12V).
T1 construct: endogenous in cells; host or cells: SW900
Kind of experiment: KRAS degradation assay (Western Blot) in SW900 cells. Particulars: 24 h. An excerpt:
(§1) Test Example 5: KRAS G12C, KRAS G12D, KRAS G12V, KRAS G13D, and KRAS WT (Expanded) Degradation Assays
(§2) The degradation effect of the compounds on KRAS was investigated on KRAS G12C mutant human non-small cell lung cancer cell NCI-H358, KRAS G12D mutant human metastatic pancreatic cancer cell AsPc-1, KRAS G12D mutant human lung cancer cell A427, KRAS G12V mutant human colorectal cancer cell SW620, KRAS G12V mutant human lung cancer cell SW900, KRAS G13D mutant human colorectal cancer epithelial cell DLD-1, and KRAS WT human gastric cancer cell MKN-1. The specific procedures were as follows: 0.95 mL of cells were seeded into each well of a 24-well cell culture plate to achieve a cell density of 5×10^5 cells/well; and the cell plate was incubated in an incubator at 37° C. with 5% CO2 overnight. Then 50 μL of the compound solution after dilution was added to each of the wells with the corresponding cells, so that the final concentration of the compound was in a range of 0.03-3000 nM. The final concentration of DMSO was 0.25%. After the compounds were added, the cell plate was incubated in an incubator at 37° C. with 5% CO2 for 24 h. The culture medium in the 24-well cell culture plate was then removed, and the plate was washed twice with 1×PBS (KeyGEN). 120 μL of RIPA (strong) lysis buffer (Beyotime) (supplemented with 1 mM phenylmethylsulfonyl fluoride, a protease inhibitor mixture (Beyotime), and a protease phosphatase inhibitor mixture (Beyotime)) was added to lyse adherent SW900 cells at the bottom of the cell culture plate. After the plate was left to stand on ice for 30 min, the protein lysate in each well was transferred to a 1.5 mL centrifuge tube and centrifuged at 15000 g for 20 min at 4° C. The cell lysate supernatants after centrifugation were cryopreserved in a refrigerator at −80° C. for later use.
(§3) After the samples of the cell lysate supernatants that had been prepared were thawed from the refrigerator at −80° C., the total protein concentrations of the cell lysates were determined using a BCA protein quantification kit (Tiangen). The total protein concentrations of the samples were then adjusted to 0.5 μg/μL with PBS and 5×SDS-PAGE protein loading buffer (Beyotime), and the samples were incubated in a water bath at 100° C. for 15 min. The samples were then incubated in an ice bath for 5 min and centrifuged at 14000 g for 1 min at 4° C., and the supernatants were mixed well as loading samples for the Western Blot assay. The samples were loaded into wells of a 10% precast gel (KeyGEN) with a loading volume of 10 μL (total protein: 5 μg), a sufficient Tris-MOPS-SDS running buffer (Adamas) was added, and then electrophoresis was performed at a constant voltage of 120 V for 55 min. After the electrophoresis, the proteins on the gel were transferred to PVDF membranes at a constant current of 250 mA for 55 min. After the membrane transfer, the PVDF membranes were incubated in 1× Quick Block blocking buffer (Beyotime)at room temperature for 30 min. After the blocking, the PVDF membranes were separately incubated at 4° C. overnight with the KRAS antibody (Abcam) diluted in a ratio of 1:1000 and the β-actin antibody (Abcam) diluted in a ratio of 1:2000 in 5% BSA as the diluent, and then washed with 1×TBST buffer (2.4 g of Tris, 8.8 g of NaCl, 1.5 mL of Tween 20, with pH adjusted to 7.4, with the volume brought to 1 L) 3 times for 10 min/time. The membranes were incubated with a secondary antibody (Abcam) diluted in 5% BSA at room temperature for 2 h, and then washed with 1×TBST buffer 3 times for 10 min/time. Finally, the membranes were incubated with Clarity Western ECL Substrate (BIO-RAD) for 5 min for luminescence and color development, and a ChemiScope 6200 Touch chemiluminescence imaging system (Clinx) was used for color development and protein mapping. Gray value analysis of the protein maps was performed using the chemiluminescence analysis software (Clinx). […]

In experiment [2] the test system is KRAS G12D mutant human gastric cancer cell AGS. Put plainly: 3D cell proliferation inhibition assay, AGS. Particulars: 168 h, 3D culture, 7 days, CTG. An excerpt:
(§4) Test Example 6: 3D Cell Proliferation Inhibition Assay
(§5) The inhibitory effects of the compounds on 3D cell proliferation were investigated on KRAS G12C mutant human non-small cell lung cancer cell NCI-H358, KRAS G12D mutant human lung cancer cell A427, KRAS G12D mutant human gastric cancer cell AGS, KRAS G12D mutant human metastatic pancreatic cancer cell AsPc-1, KRAS G12V mutant human lung squamous carcinoma cell SW900, KRAS G12V mutant human colorectal cancer cell SW620, KRAS G13D mutant human colorectal cancer epithelial cell DLD-1, and KRAS WT human gastric cancer cell MKN1. The specific procedures were as follows:
(§6) 10 μL of each compound solution diluted in a gradient was added to corresponding wells of a 96-well low-adsorption microplate (PerkinElmer), so that the final concentrations of the test compounds in the reaction system were in a range of 10000-0.026 nM. The final concentration of DMSO was 0.2%. Then 90 µL of cells were correspondingly seeded into each well to achieve a cell density of 5×10^2 cells/well (the cell density of SW900 was 5×10^3 cells/well, and the cell density of MKN1 was 1×10^3 cells/well). In addition to test wells for the test compounds, both a DMSO control well and a medium control well were set, with the DMSO control well containing DMSO and cells and the medium well containing only a medium. After the sample loading, the 96-well low-adsorption microplate was incubated in an incubator at 37° C. with […] for 7 days. After 7 days, the microplate was taken out, and 100 μL of CTG reagent (Promega) was added to each well. The plate was incubated at room temperature for 60 m and read on a microplate reader EnVision by the chemiluminescence program. The inhibition rates of the compounds at each concentration were calculated using the formula for the percentage inhibition of cell proliferation: inhibition rate 00=(mean value of DMSO control group−single concentration reading value of compound)/(mean value of DMSO control group−mean value of medium control group)×100. Then non-linear curve fillings for logarithmic concentration-inhibition rate were performed by GraphPad Prism 8, and the IC50 values of the compounds were obtained (Table 6).

The test system of experiment [3] is KRAS G12D mutant human metastatic pancreatic cancer cell AsPc-1. Put plainly: 3D cell proliferation inhibition assay, AsPc-1. Particulars: ASPC1, 168 h, 3D culture, 7 days, CTG.
Excerpt: as §4, §5, §6

Experiment [4] deals with KRAS G12C mutant human non-small cell lung cancer cell NCI-H358. Kind of experiment: 3D cell proliferation inhibition assay, NCI-H358. Particulars: NCI-H358, 168 h, 3D culture, 7 days, CTG.
Excerpt: as §4, §5, §6

Experiment [5] has as its system KRAS G12V mutant human lung squamous carcinoma cell SW900. Put plainly: 3D cell proliferation inhibition assay, SW900. Particulars: SW900, 168 h, 3D culture, 7 days, CTG.
Excerpt: as §4, §5, §6

The test system of experiment [6] is KRAS G12V mutant human colorectal cancer cell SW620. Kind of experiment: 3D cell proliferation inhibition assay, SW620. Particulars: SW-620, 168 h, 3D culture, 7 days, CTG.
Excerpt: as §4, §5, §6

Experiment [7] deals with KRAS G13D mutant human colorectal cancer epithelial cell DLD-1. Kind of experiment: 3D cell proliferation inhibition assay, DLD-1. Particulars: DLD-1, 168 h, 3D culture, 7 days, CTG.
Excerpt: as §4, §5, §6

Experiment [8] concerns KRAS WT human gastric cancer cell MKN1. Kind of experiment: 3D cell proliferation inhibition assay, MKN1. Particulars: MKN-1, 168 h, 3D culture, 7 days, CTG.
Excerpt: as §4, §5, §6

The target of experiment [9] is T2, KRAS G12V protein in SW620 cells (Homo sapiens, UniProt P01116, G12V).
T2 construct: endogenous in cells; host or cells: SW620
Kind of experiment: KRAS degradation assay (Western Blot) in SW620 cells.
Excerpt: as §1, §2, §3

Experiment [10] has as its target T3, KRAS G13D protein in DLD-1 cells (Homo sapiens, UniProt P01116, G13D).
T3 construct: endogenous in cells; host or cells: DLD-1
Kind of experiment: KRAS degradation assay (Western Blot) in DLD-1 cells. Particulars: 24 h.
Excerpt: as §1, §2, §3

T1 sequence (P01116 1-188 isoform P01116-2 G12V): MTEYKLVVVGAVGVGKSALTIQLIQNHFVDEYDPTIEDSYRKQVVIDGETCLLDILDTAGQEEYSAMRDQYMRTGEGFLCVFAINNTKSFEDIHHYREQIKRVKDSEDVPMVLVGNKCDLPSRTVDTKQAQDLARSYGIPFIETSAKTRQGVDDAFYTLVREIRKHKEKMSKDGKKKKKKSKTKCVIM
T2 sequence (P01116 1-188 isoform P01116-2 G12V): as above
T3 sequence (P01116 1-188 isoform P01116-2 G13D): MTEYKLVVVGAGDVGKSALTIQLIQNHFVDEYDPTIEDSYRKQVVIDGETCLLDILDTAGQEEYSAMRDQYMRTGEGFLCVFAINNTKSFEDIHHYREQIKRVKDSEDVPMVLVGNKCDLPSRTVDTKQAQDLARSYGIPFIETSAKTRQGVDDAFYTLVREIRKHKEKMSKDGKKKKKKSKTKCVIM

Consider `CCc1cccc2cc(O)cc(-c3ccc4c(N5CCC[C@@](C)(O)C5)nc(OCC5(CN6CCN(CC7CCC8(CC7)CCN(C(=O)c7ccc(OC)c(N9CCC(=O)NC9=O)c7)CC8)CC6)CC5)nc4c3F)c12` [Example 23, (R)-1-(5-(9-((4-((1-(((7-(8-ethyl-3-hydroxynaphthalen-1-yl)-8-fluoro-4-(3-hydroxy-3-methylpiperidin-1-yl)quinazolin-2-yl)oxy)methyl)cyclopropyl)methyl)piperazin-1-yl)methyl)-3-azaspiro[5.5]undecane-3-carbonyl)-2-methoxyphenyl)dihydropyrimidine-2,4(1H,3H)-dione], for which the DC50 in experiment [1] was at most 0.05 µM. Further, the Dmax in experiment [1] was 80 to 100%. In addition, the IC50 in experiment [2] came out at 0.0695 µM; in experiment [3], 0.0642 µM; in experiment [4], 0.0236 µM; in [5] it was 0.0468 µM; in experiment [6], 0.0123 µM; in [7], 0.0635 µM. For the same compound, the IC50 in [8] was determined as 0.00555 µM.
With `C#Cc1cccc2cc(O)cc(-c3ncc4c(N5CCC[C@@](C)(O)C5)nc(OCC5(CN6CCN(CC7CCC8(CC7)CCN(C(=O)c7ccc(C)c(N9CCC(=O)NC9=O)c7)CC8)CC6)CC5)nc4c3F)c12` [Example 27, (R)-1-(5-(9-((4-((1-(((7-(8-ethynyl-3-hydroxynaphthalen-1-yl)-8-fluoro-4-(3-hydroxy-3-methylpiperidin-1l-yl)pyrido[4,3-d]pyrimidin-2-yl)oxy)methyl)cyclopropyl)methyl)piperazin-1-yl)methyl)-3-azaspiro[5.5]undecane-3-carbonyl)-2-methylphenyl)dihydropyrimidine-2,4(1H,3H)-dione], the DC50 in experiment [1] was at most 0.05 µM. In addition, the Dmax in experiment [1] lay in the range of 80 to 100%. Moreover, the IC50 was at most 0.05 µM in experiment [3]; at most 0.05 µM in experiment [4]; at most 0.05 µM in experiment [5]; 0.00347 µM in [6]; at most 0.05 µM in [8].
`C#Cc1c(F)ccc2cc(O)cc(-c3ccc4c(N5CCC[C@@](C)(O)C5)nc(OCC5(CN6CCN(CC7CCC8(CC7)CCN(C(=O)c7ccc(C)c(N9CCC(=O)NC9=O)c7)CC8)CC6)CC5)nc4c3F)c12` [Example 41, (R)-1-(5-(9-((4-((1-(((7-(8-ethynyl-7-fluoro-3-hydroxynaphthalen-1-yl)-8-fluoro-4-(3-hydroxy-3-methylpiperidin-1-yl)quinazolin-2-yl)oxy)methyl)cyclopropyl)methyl)piperazin-1-yl)methyl)-3-azaspiro[5.5]undecane-3-carbonyl)-2-methylphenyl)dihydropyrimidine-2,4(1H,3H)-dione]: the DC50 in experiment [1] is at most 0.05 µM. Further, the Dmax in experiment [1] lay within 80 to 100%. Also, the IC50 is 0.05 to 0.1 µM in experiment [3], at most 0.05 µM in experiment [5], 0.00908 µM in [6] and at most 0.05 µM in [8].
For `C#Cc1c(F)ccc2cc(O)cc(-c3ncc4c(N5CCC[C@@](C)(O)C5)nc(OC[C@H](C)CN5CCN(CC6CCC7(CC6)CCN(C(=O)c6ccc(CC)c(N8CCC(=O)NC8=O)c6)CC7)CC5)nc4c3F)c12` [Example 133, 1-(2-ethyl-5-(9-((4-((R)-3-((7-(8-ethynyl-7-fluoro-3-hydroxynaphthalen-1-yl)-8-fluoro-4-((R)-3-hydroxy-3-methylpiperidin-1-yl)pyrido[4,3-d]pyrimidin-2-yl)oxy)-2-methylpropyl)piperazin-1-yl)methyl)-3-azaspiro[5.5]undecane-3-carbonyl)phenyl)dihydropyrimidine-2,4(1H,3H)-dione], the DC50 stood at 0.00673 µM in [9] (24 h) and 0.00728 µM in [10]. Besides, the Dmax came out at 98.9% in experiment [9] (SW-620, 24 h) and 100% in [10]. Besides, the IC50 turned out to be 0.024 µM in [3]; 0.00558 µM in experiment [4]; 0.00293 µM in experiment [6]; 0.00568 µM in experiment [7]; 0.00919 µM in experiment [8].
